From patent US12090163B2, “Pharmaceutical compositions” (CIPLA LIMITED, priority 2017, dated 2024)
Structures can show the parent of a compound that is named as a salt.

Key:
[1] = test system: HBV; assay: Primary anti-HBV assay, extracellular HBV DNA by real-time qPCR from HepG2 2.2.15 cells; type: cell-based, HBV wild-type strain ayw1
Protocol: The primary anti-HBV assay was performed by using real-time qPCR (TaqMan) to measure extracellular HBV DNA copy number associated with virions released from HepG2 2.2.15 cells. The HepG2 2.2.15 cell line was a stable human hepatoblastoma cell line that contains two copies of the HBV wild-type strain ayw1 genome and constitutively produces high levels of HBV. Antiviral compounds blocking any […] step of viral replication such as transcription, translation, pregenome encapsidation, reverse transcription, particle assembly and release can be identified and characterized using this cell line. Briefly, HepG2 2.2.15 cells were plated in 96-well microtiter plates at 1.5×10^4 cells/well in Dulbecco's Modified Eagle's Medium supplemented with 2% FBS, 380 μg/mL G418, 2.0 mM L-Glutamine, 100 units/mL Penicillin, 100 μg/mL Streptomycin, and 0.1 mM non-essential amino acids. Only the interior wells were utilized to reduce “edge effects” observed during cell culture; the exterior wells were filled with complete medium to help minimize sample evaporation. After 16-24 hours the confluent monolayer of HepG2 2.2.15 cells was washed and the medium was replaced with complete medium containing various concentrations of a test compound in triplicate. Lamivudine (3TC) was used as the positive control, while media alone was added to cells as a negative control (virus control, VC). Three days later the culture medium was replaced with fresh medium containing the appropriately diluted test compounds. Six days following the initial administration of the test compound, the cell culture supernatant was collected, treated with pronase and then used in a real-time quantitative TaqMan qPCR assay. The PCR-amplified HBV DNA was detected in real-time by monitoring increases in fluorescent signal that result from the exonucleolytic degradation of a quenched fluorescent probe molecule that hybridizes to the amplified HBV DNA. […] Antiviral activity was calculated from the reduction in HBV DNA levels (EC50 values determined). […] The Selectivity Index was calculated as CC50/EC50.

[2] = test system: HIV-1 isolate 89BZ_167; assay: In vitro efficacy against HIV-1 in fresh PBMCs (reverse transcriptase activity in supernatant), isolate 89BZ_167; type: cell-based
Protocol: Fresh human PBMCs, seronegative for HIV and HBV, were isolated from screened donors (Biological Specialty Corporation, Colmar, PA). Cells were pelleted/washed 2-3 times by low speed centrifugation and re-suspension in PBS to remove contaminating platelets. The Leukophoresed blood was then diluted 1:1 with Dulbecco's Phosphate Buffered Saline (DPBS) and layered over 15 mL of Ficoll (GE Healthcare #17-1440-02) in 50 mL centrifuge tube and then centrifuged for 30 minutes at 600×g. Banded PBMCs were gently aspirated from the resulting interface and subsequently washed 2× with PBS by low speed centrifugation. After the final wash, cells were enumerated by tryptan blue exclusion and re-suspended at 1×10^6 cells/mL in RPMI 1640 supplemented with 15% Fetal Bovine Serum (FBS), and 2 mM L-glutamine, 4 μg/mL Phytohemagglutinin (PHA, Sigma). The cells were allowed to incubate for 48-72 hours at 37° C. […] Pooling (mixing) of mononuclear cells from more than one donor was used to minimize the variability observed between individual donors, which results from quantitative and qualitative differences in HIV infection and overall response to the PHA and IL-2 of primary lymphocyte populations. […]

C[C@H](Cn1cnc2c(N)ncnc21)OCP(=O)(OCOC(=O)C(C)(C)C)Oc1ccccc1 (stereo partly drawn) [((((((R)-1-(6-amino-9H-purin-9-yl)propan-2-yl)oxy)methyl)(phenoxy)phosphoryl)oxy)methyl pivalate fumarate]
Selectivity Index ([1]; CC50/EC50, HepG2 2.2.15 cells): >1250 | Conclusion: activity against HBV ([1]; HepG2 2.2.15 cells): potently active | EC50 ([1]; Hepatitis B virus, 144 h, reduction in extracellular HBV DNA, HepG2 2.2.15 cells, six days): 80 nM | Selectivity Index ([2]; HIV-1 isolate 89BZ_167, PBMCs): 1333 | EC50 ([2]; Human immunodeficiency virus 1, PBMC, HIV-1 isolate 89BZ_167, PHA-stimulated fresh human PBMCs, six-seven days): 20.8 nM
